The values that follow come from US5169858A, “Anti-tumor compositions containing the reactive product of benzaldehyde or salicylaldehyde with penicillamine and method of use thereof” (priority 1986, dated 1992).

Each structure is given as a SMILES string.

The conditions of data set [1]: Terol et al publication; cited from earlier work.
For data set [2] the following is noted: Terol et al publication; species and route not given; cited from earlier work.
A short description of data set [3]: Water solubility of free compound and copper chelates. As to conditions: stated in the description, no test described. The class given is physicochemical.
The test system of data set [4] is mouse melanoma cells. Description: Subcutaneous mouse melanoma, treatment from palpable tumor, 33 mg/kg orally every day. The class given is in vivo, black mice. Conditions: 33 mg/kg every day by oral intubation. How it is done: (§1) Thirty-seven black mice were divided into two groups. Group I had 18 mice and was the control group. Group II had 19 mice and was the treated group. Each mouse was innoculated with 100,000 mouse melanoma cells subcutaneously. After the tumor was palpable (after about a week) the control group received saline orally. The treated group got 33 mg/kg of 5,5-dimethyl-2-phenyl-4-thiazolidine carboxylic acid every day by oral intubation. All of the control group died within an average of twenty-three days. The treated group started dying at day 50. The last mouse of the treated group died on day 70. The treated group died from day 50 on at the rate of about one mouse per day. […] Two mice in the treated group survived cured. The tumor disappeared in the two cured mice.

Data set [5] concerns mouse melanoma cells. The class given is in vivo, black mice. The procedure: as §1
The same experiment was repeated with 20 control mice and 20 mice in the treated group, employing doses of 5,5-dimethyl-2-phenyl-4-thiazolidine carboxylic acid at 100 mg/kg. The treatment began about one day after innoculation. The control group died at the same time as the control group in the previous experiment. […] Five of the treated mice died between the 7th and 9th day. The reasons for these deaths are unclear, but it is presumed that they were asphyxiated by intubation.

The test system of a further data set is tumor. As to conditions: literature / other patent (Kochi et al.; U.S. Pat. No. 4,762,705); cited from earlier work.

For `CC1(C)SC(c2ccccc2)NC1C(=O)O` (stereo not drawn) [5,5-dimethyl-2-phenyl-4-thiazolidine carboxylic acid], the “effect as a radio-protectant agent” value in data set [1] is “absolutely no effect whatsoever”. Further, the 50% lethal dose (LD50) in data set [2] is recorded as 1200 mg/kg. Moreover, in data set [3], the water solubility entry is “water-soluble”. In addition, the “tumor development compared with control group” value in the data set on mouse melanoma cells [4] was “developed slower than the tumors in the control group”. In the data set with mouse melanoma cells [4] (19 treated mice), the “day of death of last mouse of treated group” value amounted to 70 days and the “mice in treated group that survived cured (tumor disappeared)” value is “Two”. The “day on which treated group started dying” value in the data set on mouse melanoma cells [4] (19 treated mice, control died within an average of twenty-three days) was 50 days. Also, the “palpable tumors developed in treated group” value with mouse melanoma cells [5] (100 mg/kg, treatment began about one day after inoculation, 20 treated mice) is given as “no palpable tumors”. Also, in the data set on mouse melanoma cells [5] (mouse, in vivo), the “day of death of the five treated mice” value lay in the range of 7 to 9 days; the “treated mice that died between the 7th and 9th day” value is listed as “Five”.
Consider `O=Cc1ccccc1` [benzaldehyde], for which the anti-tumor activity entry in the data set on tumor was “has been shown to have anti-tumor activity”.
Consider `CC(C)(S)[C@@H](N)C(=O)O` [penicillamine, dimethylcysteine], for which the anti-tumor activity result with tumor is “has anti-tumor activity”.

A word on the LD50: it is the dose at which mortality reaches 50%.
